The values that follow come from patent US6727245B2, “Heterobicyclic derivatives” (Fujisawa Pharmaceutical Co., Ltd., priority 1994, dated 2004).

Broadly, the IC50 is the concentration that gives 50% inhibition. Lower therefore signals higher potency. Broadly, the melting point is the temperature of the solid-liquid transition.

Data set [1] addresses U937 Phosphodiesterase IV (PDE IV). Description: Inhibition of U937 Phosphodiesterase IV (PDE IV). The class given is biochemical. Conditions: PDE IV enzyme preparation from U937 cell homogenate; [3H]-cAMP substrate; CI-930 (PDE III inhibitor) final 10 μM; 30° C. As for the experimental part:
(a) Inhibition of U937 Phosphodiesterase IV (PDE IV)
Harvested U937 was freezed in −80° C. and throwed to destroy the cell body. The pellet of destroyed cell was washed by Phosphate-buffered saline (PBS).
The washed cell pellet was homogenized with Dounce homogenizer (20 strokes) in homogenizing buffer (0.5% deoxycholate [DOC], 5 mM 2-mercaptoethanol, 1 μM leupeptin, 100 μM PMSF, 20 μM p-tosyl-L-lysine-chloromethyl ketone [TLCK] in PBS). The homogenate was centrifuged at 100,000 g×90 minutes (4° C.) and the supernatant containing PDE IV activity was dialyzed against dialysis buffer, which was the same component as homogenizing buffer without DOC. The dialyzed supernatant of homogenate was stored in freezer (−80° C.) as PDE IV enzyme preparation.
Enzyme preparation was diluted in assay buffer (10 mM Tris-HCl, 5 mM MgCl, 1 mM 2-Mercaptoethanol [pH 8.0]). In advance the rate of dilution was choosen every new lot of homogenizing preparation. […]
The reaction tube was preincubated in a water bath (30° C.) for 5 minutes, then 100 μl [^3H]-cAMP (37.0 MBq/ml [^3H]-cAMP: 4 μM cold cAMP=1:800) was added thereto. […] The mixture was centrifuged at 1000 rpm×5 minutes, and then 500 μl of the supernatant was added to 10 ml scintillation fluid in appropriate vial, vortexed, and counted for [^3H].
The inhibitory activity was calculated according to the following equation: [formula]

Data set [2] relates to TNF-α Production in Human Mononuclear Cells. The data set is described as follows: Inhibition on TNF-α Production in Human Mononuclear Cells. The class given is cell-based. Conditions: MNC from healthy volunteers, 1 μg/ml LPS (E. coli), 37° C. for 16 hours, TNF-α in supernatant by ELISA. As for the experimental part: (b) Inhibition on TNF-α Production in Human Mononuclear Cells
Blood was drawn from healthy volunteers with heparin. The mononuclear cell (MNC) fraction was obtained by gradient centrifugation (1800 rpm, 15 minutes), diluted with the same volume of RPMI-1640 culture medium, over Ficoll-Paque (Pharmacia LKB Biotechnology). MNC were washed twice with RPMI-1640. Then, MNC were resuspended in RPMI-1640 culture medium supplemented with 2 mM L-glutamine and 1% fetal bovine serum. MNC were incubated at 37° C. for 16 hours in 96-well micro culture plate at a concentration of […] with or without 1 μg/ml lipopolysaccharide (LPS) (from E. coli) and various amounts of test compound. At the end of incubation, the supernatant was obtained and its TNF-α active was measured by enzyme-linked immunosorbent assay (ELISA). ELISA was performed with TNF-α ELISA kit (Otsuka Pharmaceutical Co., Ltd.).
For orientation: In an ELISA, binding on a coated surface is turned into a signal by an enzyme label.

For `O=C(Nc1cccc(-n2c(=O)c(Cc3ccccc3)nc3cccnc32)c1)Nc1cccc2ccccc12` [Test compound (a), 4-[3-[3-(1-Naphthyl)ureido]phenyl]-2-benzyl-3-oxo-3,4-dihydropyrido[2,3-b]pyrazine], the results for the IC50 in data set [1] and in data set [2] were 0.031 µM and 0.056 µM, respectively. Compound `O=c1c(Cc2ccccc2)nc2cccnc2n1-c1cccc(NS(=O)(=O)c2ccccc2)c1` [Example 68(13), 2-Benzyl-4-(3-phenylsulfonylaminophenyl)-3-oxo-3,4-dihydropyrido[2,3-b]pyrazine] registered a melting point of 199 to 211 °C. The same measure, in the same setting: for `O=c1c(Cc2cccnc2)nc2cccnc2n1-c1cccc(-n2cccc2)c1` [Example 45(13), 4-[3-(1-Pyrrolyl)phenyl]-2-(3-pyridylmethyl)-3-oxo-3,4-dihydropyrido[2,3-b]pyrazine] the value was 128 to 130 °C; for `CC(=O)c1cn(-c2cccc(-n3c(=O)c(Cc4cccnc4)nc4cccnc43)c2)c2ccccc12` [Example 45(17), 4-[3-(3-Acetylindol-1-yl)phenyl]-2-(3-pyridylmethyl)--3-oxo-3,4-dihydropyrido[2,3-b]pyrazine], 153 to 156 °C.

Compound `O=C(Nc1cccc(-c2cccc(-n3c(=O)c(Cc4cccnc4)nc4cccnc43)c2)c1)C(F)(F)F` [Example 83, 4-[3-(3-trifluoroacetylaminophenyl)phenyl]-2-(3-pyridylmethyl)-3-oxo-3,4-dihydropyrido[2,3-b]pyrazine] came in with a melting point of 138 to 144 °C. In the case of `O=C(O)CCC(=O)Nc1cccc(-c2cccc(-n3c(=O)c(Cc4cccnc4)nc4cccnc43)c2)c1` [Example 82(1), 4-[3-[3-(3-Carboxypropanoylamino)phenyl]phenyl]-2-(3-pyridylmethyl)-3-oxo-3,4-dihydropyrido[2,3-b]pyrazine], the melting point is 193 to 199 °C.

For `O=c1c(Cc2ccccc2)nc2cccnc2n1-c1cccc(-n2c(Br)ccc2Br)c1` [Example 113, 2-Benzyl-4-[3-(2,5-dibromopyrrol-1-yl)phenyl]-3-oxo-3,4-dihydropyrido[2,3-b]pyrazine], the melting point is 90 °C (dec.).

As to `COc1ccccc1NC(=O)Nc1cccc(-n2c(=O)c(Cc3ccccc3[N+](=O)[O-])nc3cccnc32)c1` [Example 16(14), 2-(2-Nitrophenylmethyl)-3-oxo-4-[3-[3-(2-methoxyphenyl)ureido]phenyl]-3,4-dihydropyrido[2,3-b]pyrazine], the melting point is 200 to 208 °C (dec.).

`COC(=O)/C=C/c1cccc(-n2c(=O)c(Cc3cccnc3)nc3cccnc32)c1` [Example 54(29), 4-[3-[ (E)-2-Methoxycarbonylvinyl]phenyl]-2-(3-pyridylmethyl)-3-oxo-3,4-dihydropyrido[2,3-b]pyrazine] displayed a melting point of 180 to 181 °C.

Turning to `O=C(/C=C/c1ccncc1)Nc1cccc(-c2cccc(-n3c(=O)c(Cc4cccnc4)nc4cccnc43)c2)c1` [Example 76(6), 4-[3-[3-[(E)-3-(4-Pyridyl)acryloylamino]phenyl]phenyl]-2-(3-pyridylmethyl)-3-oxo-3,4-dihydropyrido[2,3-b]pyrazine], the melting point fell in the range of 185 to 191 °C.

For `CC(=O)Nc1cccc(-n2c(=O)c(CCC(=O)O)nc3cccnc32)c1` [Example 16(15), 4-(3-Acetamidophenyl)-2-(2-carboxyethyl)-3-oxo-3,4-dihydropyrido[2,3-b]pyrazine], the melting point is 264 to 269 °C (dec.). Still for that read-out and setting: for `O=C(c1ccccc1)c1cccc(-n2c(=O)c(Cc3cccnc3)nc3cccnc32)c1` [Example 45(16), 4-(3-Benzoylphenyl)-2-(3-pyridylmethyl)-3-oxo-3,4-dihydropyrido[2,3-b]pyrazine] the value was 142 to 143 °C; for `COc1ccccc1NC(=O)Nc1cccc(-n2c(=O)c(CCC(=O)N3CCN(C)CC3)nc3cccnc32)c1` [Example 35, 4-[3-[3-(2-methoxyphenyl)ureido]phenyl]-2-[2-(4-methylpiperazin-1-yl)carbonylethyl]-3-oxo-3,4-dihydropyrido[2,3-b]pyrazine], 195 to 197 °C; for `O=C(Nc1cccc(-c2cccc(-n3c(=O)c(Cc4cccnc4)nc4cccnc43)c2)c1)c1ccc2ccccc2c1` [Example 76(2), 4-[3-[3-(2-Naphthoylamino)phenyl]phenyl]-2-(3-pyridylmethyl)-3-oxo-3,4-dihydropyrido[2,3-b]pyrazine], 202 to 210 °C.
